Data on two molecules can be found in US20220047718A1, “Nanoparticle-Based Therapy of Inflammatory Disorders” (priority 2018, published 2022).

Data set [1] concerns Imiquimod (IMQ)-induced mouse model of psoriasis.
Description: (a) Experimental Scheme of three-day IMQ treatment with seven-day systemic therapy. (b) (upper panel) change in ear thickness between control (PBS; crosses), IMQ-treated (squares), and systemic MTX therapy receiving (1 mg/kg (upward triangles), 2 mg/kg (downward triangles), 5 mg/kg (diamonds)) animals. (Lower panels) statistical analysis of ear thickness differences between groups between days 4-7.
(a) (upper panel), change in ear thickness between control (PBS, crosses), IMQ-treated (squares), and systemic therapy receiving in addition to IMQ, 2 mg/kg MTX (upward triangles), GNPs containing 5.5 mg/kg Au (downward triangles), and MTX-GNP containing 2 mg/kg MTX and 5.5 mg/kg Au (diamonds). (Lower panels) statistical analysis of ear thickness differences between groups between days 4-7. […] Data is pooled from 2-3 independent experiments, 2 to 5 mice per condition and represented as mean±standard deviation.
Clinical efficacy and in vivo tolerability were assessed against relevant controls for both systemic (subcutaneous injection) and topical administration.
First, we evaluated tolerance of mice to MTX with a dose escalation setup (FIG. 2b).
Data set [2] can be described thus: Formulation into Carbopol 980 gel: precipitation / homogeneity. The class given is physicochemical. Conditions: for precipitation / homogeneity in 2% Carbopol 980 gel: Carbopol 980 adjusted to pH 7.4 prior to addition. How it is done:
Gels were prepared by dispersing 1-3% w/v of Carbopol polymer (w/v) into purified water with constant mixing and thus allowed to hydrate for 5 hours. Care was taken to avoid air entrapment by agitating the solution slowly on a rocker during preparation of the gel. After 5 hours, the pH of the gel was adjusted to pH 7.4 using triethylamine (Sigma-Aldrich, Lot #STBF616V) to neutralise the pH and turn the solution into a gel (triethanolamine is contemplated herein as a suitable alternative to triethylamine).
For production of methotrexate-GNP hydrogel, 2% w/v Carbopol®980 was initially dispersed for 5 hours with constant mixing. […] Plain methotrexate drug gel was prepared by dissolving MTX-PEG3-NH2 in water and adjusting the pH to pH 4.5. The MTX-PEG3-NH2 solution was added to the previously made 2% Carbopol®980 solution.
The method for formulating gold nanoparticles into Carbopol®980 gels was optimised by testing the effects of pH and speed of addition of nanoparticles using control [α-Gal][PEG8COOH]@Au GNPs. […] The gels were all stored at 4° C.
For production of methotrexate-GNP hydrogel, 2% w/v Carbopol®980 was dispersed for 5 hours with constant mixing. The pH of the Carbopol®980 solution was adjusted to pH 7.4 to produce a clear gel. […] Plain methotrexate drug gel was prepared by adding MTX-PEG3-NH2 dissolved in water to the pH 7.4 adjusted Carbopol®980 gel (2%).

For the molecule `CN(Cc1cnc2nc(N)nc(N)c2n1)c1ccc(C(=O)N[C@@H](CCC(=O)O)C(=O)O)cc1` [MTX, Methotrexate], the animal wellbeing entry in data set [1] (mouse, in vivo) is listed as “irrevocably impaired animal wellbeing”. Further, the “tolerability / systemic toxicity (liver enzyme measurements, daily weight monitoring)” value in data set [1] (mouse, in vivo, sc, 2 mg/kg) is “tolerable”. Besides, the “IMQ-induced inflammation (ear thickness)” value in data set [1] (systemic (subcutaneous), 2 mg/kg MTX daily) is on record as “no significant inflammation control”. Also, in data set [1] (systemic MTX 5 mg/kg daily), the “ear thickness / inflammation control” value was “clinically effective”.
For the molecule `CN(Cc1cnc2nc(N)nc(N)c2n1)c1ccc(C(=O)NC(CCC(=O)NCCCOCCOCCOCCCN)C(=O)O)cc1` (stereo not shown) [MTX-PEG3-NH2, 4-[(3-{2-[2-(3-aminopropoxy)ethoxy]ethoxy}propyl)carbamoyl]-2-[(4-{[(2,4-diaminopteridin-6-yl)methyl](methyl)amino}phenyl)formamido]butanoic acid], the “precipitation / homogeneity in 2% Carbopol 980 gel” value in data set [2] is “no precipitation”; in data set [2] (listed as modified methotrexate), “without precipitation”. The “precipitation on addition to 2% Carbopol 980 solution” value in data set [2] (acidic addition (GNPs pH 2.6; MTX-PEG3-NH2 pH 4.5), Carbopol not neutralised) was “small level of yellow precipitation”.
